Here are results for 20 compounds from patent publication US20100137275A1 (IPSEN PHARMA S.A.S., priority 2007, published 2010).

By melting point is commonly meant the temperature, or range, at which the solid turns liquid.

The structures appear in SMILES notation. Where two headings read alike, the source gives them in different places. Some results are limits rather than exact numbers.

For data set [1], the system named is DU145 (human prostate cancer cells). As to the kind of experiment: Anti-proliferative activity on DU-145 cell line (WST1 colorimetric test). It counts as cell-based. To be noted: read-out: IC50 on the proliferation of the DU-145 cell line. On the procedure: By way of an example, the effect of treating two human cell lines Mia-Paca2 and DU145 with the compounds of the examples described hereinbefore will be studied. The cell lines DU145 (human prostate cancer cells) and Mia-PaCa2 (human pancreas cancer cells) were obtained from the American Tissue Culture Collection (Rockville, Md., USA). A 96-well plate was inoculated on day 0 with cells placed in 80 μl of Dulbecco's modified Eagle's medium (Gibco-Brl, Cergy-Pontoise, France) with 10% heat-inactivated foetal calf serum (Gibco-Brl, Cergy-Pontoise, France), 50000 units/1 of penicillin and 50 mg/l of streptomycin (Gibco-Brl, Cergy-Pontoise, France), and 2 mM of glutamine (Gibco-Brl, Cergy-Pontoise, France). The cells were treated on day 1 with increasing concentrations of each test compound up to 10 μM for 96 hours. At the end of this period, cell proliferation is quantified by means of a colorimetric test based on cleavage of the tetrazolium salt WST1 by the mitochondrial dehydrogenases in the viable cells, resulting in formation of formazan (Boehringer Mannheim, Meylan, France). These tests are performed in duplicate with 8 determinations per concentration tested. For each compound to be tested, the values within the linear part of the sigmoid curve were subjected to linear regression analysis and used to estimate the IC50 inhibitory concentration. The products are solubilised in dimethylsulfoxide (DMSO) at a concentration of 10^−2 M and used in culture with a final DMSO concentration of 0.1%.
(In general: Formazan colour is commonly taken as a measure of viable cells.)

In data set [2] the target is T1, purified recombinant Cdc25-C enzyme (MBP-Cdc25C protein) (Homo sapiens, UniProt P30307).
T1 construct: made in house
T1 sequence (P30307 1-473): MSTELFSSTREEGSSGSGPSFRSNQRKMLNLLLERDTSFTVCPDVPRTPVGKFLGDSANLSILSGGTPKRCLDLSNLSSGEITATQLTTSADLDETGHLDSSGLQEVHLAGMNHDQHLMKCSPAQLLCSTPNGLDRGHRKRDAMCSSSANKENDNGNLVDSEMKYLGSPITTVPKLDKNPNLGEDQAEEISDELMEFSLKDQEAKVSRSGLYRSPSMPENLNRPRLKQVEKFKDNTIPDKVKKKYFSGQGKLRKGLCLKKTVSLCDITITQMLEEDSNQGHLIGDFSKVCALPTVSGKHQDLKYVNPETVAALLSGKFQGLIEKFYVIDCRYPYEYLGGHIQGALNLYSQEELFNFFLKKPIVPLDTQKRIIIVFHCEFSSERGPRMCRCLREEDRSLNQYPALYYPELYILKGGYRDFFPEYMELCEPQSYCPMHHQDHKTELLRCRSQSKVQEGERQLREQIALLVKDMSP
The data set can be described thus: Phosphatase activity of the purified recombinant Cdc25C enzyme (OMFP dephosphorylation, fluorescence). It counts as biochemical. The settings on record: OMFP 500 μM, 4 hours at 30° C. On the procedure:
The phosphatase activity of the MBP-Cdc25C protein is evaluated through its dephosphorylation of 3-O-methylfluorescein-phosphate (OMFP) to form 3-O-methylfluorescein (OMF), determining the fluorescence of the reaction product at 475 nm. This assay can be used to identify inhibitors of the recombinant Cdc25 enzyme. The preparation of the MBP-Cdc25C fusion protein is described in patent application PCT WO 01/44467.
The reaction is performed in 384-well plates in a final volume of 50 μl. The MBP-Cdc25C protein (prepared as described hereinabove) is stored in the following elution buffer: 20 mM Tris-HCl pH 7.4; 250 mM NaCl; 1 mM EDTA; 1 mM dithiothreitol (DTT); 10 mM maltose. It is diluted to a concentration of 60 μM in the following reaction buffer: 50 mM Tris-HCl pH 8.2; 50 mM NaCl; 1 mM DTT; 20% glycerol. The background noise is determined using with the buffer without addition of the enzyme. The products are tested at decreasing concentrations from 40 μM. The reaction is initiated by the addition of a solution OMFP to a final concentration of 500 μM (prepared immediately before use from a 12.5 mM stock solution in 100% DMSO (Sigma #M2629)). After 4 hours at 30° C. in a disposable 384-well plate, the fluorescence measured at OD 475 nm is read on a Victor^2 plate reader (EGG-Wallac). The concentration that produces 50% inhibition of the enzyme reaction is calculated from three independent experiments. Only the values that fall within the linear part of the sigmoid curve are used for the linear regression analysis.

Consider `CN(CCNC(=S)Nc1ccc(Oc2ccc([N+](=O)[O-])cc2)cc1)CCNc1cc(N2CCCC2)nc(N2CCCC2)n1` [Example 45, N-{2-[{2-[(2,6-dipyrrolidin-1-ylpyrimidin-4-yl)amino]ethyl}(methyl)amino]ethyl}-N′-[4-(4-nitrophenoxy)phenyl]thiourea], for which the IC50 in data set [1] (DU-145, 96 h, 96 hours treatment) was at most 5 µM; in data set [2], at most 5 µM.
On to `CN(CCNC(=O)N[C@@H]1CCc2ccccc2C1)CCNc1cc(N2CCCC2)nc(N2CCCC2)n1` [Example 11], for which the IC50 was at most 5 µM in data set [1] (DU-145, 96 hours treatment) and at most 5 µM in data set [2].
The compound `CN(CCNC(=O)NC(C)(C)C)CCNc1cc(N2CCCC2)nc(N2CCCC2)n1` [Example 9, N-(tert-butyl)-N′-{2-[{2-[(2,6-dipyrrolidin-1-ylpyrimidin-4-yl)amino]ethyl}(methyl)amino]ethyl}urea] registered a melting point of 107 to 109 °C. In addition, in data set [2], the IC50 was at most 5 µM.
`CN(CCNC(=S)Nc1cccc([N+](=O)[O-])c1)CCNc1cc(N2CCCC2)nc(N2CCCC2)n1` [Example 49, N-{2-[{2-[(2,6-dipyrrolidin-1-ylpyrimidin-4-yl)amino]ethyl}(methyl)amino]ethyl}-N′-(3-nitrophenyl)thiourea] showed a melting point of 125 to 127 °C. Moreover, the IC50 in data set [2] is at most 1 µM.
On the same counts, the results for `O=C(NCCOCCNc1cc(N2CCCC2)nc(N2CCCC2)n1)Nc1ccc(Cl)c(C(F)(F)F)c1` [Example 20, N-[4-chloro-3-(trifluoromethyl)phenyl]-N′-(2-{2-[(2,6-dipyrrolidin-1-ylpyrimidin-4-yl)amino]ethoxy}ethyl)urea] are 79 to 81 °C and at most 5 µM.
On the same counts, the results for `CN(CCNC(=S)Nc1ccc(Cl)cc1)CCNc1cc(N2CCCC2)nc(N2CCCC2)n1` [Example 22, N-(4-chlorophenyl)-N′-{2-[{2-[(2,6-dipyrrolidin-1-ylpyrimidin-4-yl)amino]ethyl}(methyl)amino]ethyl}thiourea] are 127 to 129 °C and at most 1 µM.
Regarding `COc1ccc(C(=O)NC(=S)NCCN(C)CCNc2cc(N3CCCC3)nc(N3CCCC3)n2)cc1` [Example 80, N-[({2-[{2-[(2,6-dipyrrolidin-1-ylpyrimidin-4-yl)amino]ethyl}(methyl)amino]ethyl}amino)carbonothioyl]-4-methoxybenzamide], the melting point was 171 to 173 °C. Also, the IC50 in data set [2] was at most 5 µM.
With `Cc1noc(C)c1NC(=O)NCCN(C)CCNc1cc(N2CCCC2)nc(N2CCCC2)n1` [Example 13, N-(3,5-dimethylisoxazol-4-yl)-N′-{2-[{2-[(2,6-dipyrrolidin-1-ylpyrimidin-4-yl)amino]ethyl}(methyl)amino]ethyl}urea], the melting point lay within 95 to 97 °C. In addition, in data set [2], the IC50 was at most 1 µM.
`CN(CCNC(=S)Nc1ccc(C#N)cc1)CCNc1cc(N2CCCC2)nc(N2CCCC2)n1` [Example 77, N-(4-cyanophenyl)-N′-{2-[{2-[(2,6-dipyrrolidin-1-ylpyrimidin-4-yl)amino]ethyl}(methyl)amino]ethyl}thiourea] displayed a melting point of 107 to 109 °C. Moreover, the IC50 in data set [2] is at most 1 µM.
The corresponding values for `CN(CCNC(=O)c1ccc(C(=O)c2ccccc2)cc1)CCNc1cc(N2CCCC2)nc(N2CCCC2)n1` [Example 83, 4-benzoyl-N-{2-[{2-[(2,6-dipyrrolidin-1-ylpyrimidin-4-yl)amino]ethyl}(methyl)amino]ethyl}benzamide] are 119 to 121 °C and at most 5 µM.
`CCNC(=S)NCCN(C)CCNc1cc(N2CCCC2)nc(N2CCCC2)n1` [Example 28, N-{2-[{2-[(2,6-dipyrrolidin-1-ylpyrimidin-4-yl)amino]ethyl}(methyl)amino]ethyl}-N′-ethylthiourea] showed a melting point of 82 to 84 °C. For the same compound, the IC50 in data set [2] was at most 1 µM.
As to `CN(CCNC(=S)Nc1ccc([N+](=O)[O-])cc1)CCNc1cc(N2CCCC2)nc(N2CCCC2)n1` [Example 43, N-{2-[{2-[(2,6-dipyrrolidin-1-ylpyrimidin-4-yl)amino]ethyl}(methyl)amino]ethyl}-N′-(4-nitrophenyl)thiourea], the melting point was 146 to 148 °C. Besides, the IC50 in data set [2] was at most 1 µM.
The corresponding values for `CNS(=O)(=O)c1ccc(NC(=S)NCCN(C)CCNc2cc(N3CCCC3)nc(N3CCCC3)n2)cc1` [Example 59, 4-{[({2-[{2-[(2,6-dipyrrolidin-1-ylpyrimidin-4-yl)amino]ethyl}(methyl)amino]ethyl}amino)carbonothioyl]amino}-N-methylbenzenesulfonamide] are 102 to 104 °C and at most 1 µM.
On the same counts, the results for `CN(CCNC(=S)Nc1ccc(F)cc1F)CCNc1cc(N2CCCC2)nc(N2CCCC2)n1` [Example 40, N-(2,4-difluorophenyl)-N′-{2-[{2-[(2,6-dipyrrolidin-1-ylpyrimidin-4-yl)amino]ethyl}(methyl)amino]ethyl}thiourea] are 124 to 126 °C and at most 1 µM.
With `CN(CCNC(=S)Nc1ccc(N2CCOCC2)nc1)CCNc1cc(N2CCCC2)nc(N2CCCC2)n1` [Example 32, N-{2-[{2-[(2,6-dipyrrolidin-1-ylpyrimidin-4-yl)amino]ethyl}(methyl)amino]ethyl}-N′-(6-morpholin-4-ylpyridin-3-yl)thiourea], the melting point lay within 116 to 118 °C. Further, the IC50 in data set [2] was at most 5 µM.
The corresponding values for `CN(CCNC(=O)NCc1ccco1)CCNc1cc(N2CCCC2)nc(N2CCCC2)n1` [Example 14, N-{2-[{2-[(2,6-dipyrrolidin-1-ylpyrimidin-4-yl)amino]ethyl}(methyl)amino]ethyl}-N′-(2-furylmethyl)urea] are 103 to 105 °C and at most 1 µM.
On to `CN(CCNC(=S)Nc1ccc(Cl)c(F)c1)CCNc1cc(N2CCCC2)nc(N2CCCC2)n1` [Example 56, N-(4-chloro-3-fluorophenyl)-N′-{2-[{2-[(2,6-dipyrrolidin-1-ylpyrimidin-4-yl)amino]ethyl}(methyl)amino]ethyl}thiourea], for which the melting point was in the range of 146 to 148 °C. For the same compound, the IC50 in data set [2] was at most 5 µM.
On the same counts, the results for `CN(CCN)CCNc1cc(N2CCCC2)nc(N2CCCC2)n1` [Example 1, N-{2-[(2,6-dipyrrolidin-1-ylpyrimidin-4-yl)amino]ethyl}-N-methylethane-1,2-diamine] are 67 to 69 °C and at most 5 µM.
On the same counts, the results for `CN(CCNC(=S)Nc1ccc(Cl)c(Cl)c1)CCNc1cc(N2CCCC2)nc(N2CCCC2)n1` [Example 55, N-(3,4-dichlorophenyl)-N′-{2-[{2-[(2,6-dipyrrolidin-1-ylpyrimidin-4-yl)amino]ethyl}(methyl)amino]ethyl}thiourea] are 148 to 150 °C and at most 5 µM.
The compound `CN(CCNC(=S)Nc1ccc(Cl)c(C(F)(F)F)c1)CCNc1cc(N2CCCC2)nc(N2CCCC2)n1` [Example 54, N-[4-chloro-3-(trifluoromethyl)phenyl]-N′-{2-[{2-[(2,6-dipyrrolidin-1-ylpyrimidin-4-yl)amino]ethyl}(methyl)amino]ethyl}thiourea] returned a melting point of 117 to 119 °C. Also, in data set [2], the IC50 was at most 5 µM.
